Assay results published in patent publication US7792665B2, “Method for designing a compound based on the three dimensional structure of phosphoinositide dependent protein kinase 1 (PDK1)” (Medical Research Council, priority 2002, dated 2010).
Substitutions are numbered along the chain they refer to. Entries after “also recorded” stand apart in the source; their conditions may differ. Where a SMILES comes first, the peptide text is derived from it. [ ]: non-standard residue; d: D form. pT = C[C@@H](OP(=O)(O)O)[C@H](N)C(=O)O

Key:
PDK1[Q150A] = target: T1, PDK1[Q150A] (Homo sapiens, UniProt O15530, Q150A); assay: Surface plasmon resonance (BiaCore) binding, PDK1[Q150A]; set-up: made in house; host or cells: human embryonic kidney 293 cells (pEBG2T vector)
T1 sequence (O15530 1-556 Q150A): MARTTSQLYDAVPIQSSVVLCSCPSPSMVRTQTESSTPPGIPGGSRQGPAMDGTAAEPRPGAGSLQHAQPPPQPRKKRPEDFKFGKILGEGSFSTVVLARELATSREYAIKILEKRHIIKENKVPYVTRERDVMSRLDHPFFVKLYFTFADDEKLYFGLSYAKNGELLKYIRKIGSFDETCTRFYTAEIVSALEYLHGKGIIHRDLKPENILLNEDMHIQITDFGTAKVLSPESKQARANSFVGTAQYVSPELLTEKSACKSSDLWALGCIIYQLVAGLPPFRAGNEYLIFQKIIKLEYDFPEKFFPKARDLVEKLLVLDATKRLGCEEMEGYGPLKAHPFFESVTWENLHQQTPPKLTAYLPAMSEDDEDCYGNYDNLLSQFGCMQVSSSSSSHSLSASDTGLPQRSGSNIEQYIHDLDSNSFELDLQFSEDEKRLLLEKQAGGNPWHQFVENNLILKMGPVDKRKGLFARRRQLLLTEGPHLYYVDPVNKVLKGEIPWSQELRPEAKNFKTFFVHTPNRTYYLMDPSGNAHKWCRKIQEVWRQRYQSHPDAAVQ
Experimental: (§1) Binding and activation of wild type and mutant forms of PDK1 to a phosphopeptide derived from the hydrophobic motif of S6K1. The binding of the wild type (wt) PDK1 and indicated mutants to a phosphopeptide comprising the hydrophobic motif of S6K1 (S6K-pHM: […]*YVAPSV, where T* indicates phospho-threonine, SEQ ID NO:104) was analysed by surface plasmon resonance as described in the Materials and Methods.
(§2) A. The sensor chip SA was coated with 12RUs of the biotinylated S6K-pHM peptide and the binding was analysed following injection of 270 nM wild type PDK1, PDK1 [T148A] and PDK1 [K76A]. […] (data not shown).
Binding was analysed in a BiaCore 3000 system (BiaCore AB, Stevenage, UK). Biotinylated S6K-pHM (Biotin-C12-[…](P)YVAPSV) (SEQ ID NO:104) or the non-phosphorylated form of this peptide S6K-HM was bound to an streptavidin-coated Sensor chip (SA) (12 response units, RU). 30 μl of wild type or the indicated mutant GST-PDK1 were injected at a flow rate of 30 μl/min, in buffer HBS-P (10 mM HEPES pH 7.4, 0.15M NaCl, 0.005% (by vol) polysorbate-20) supplemented with 1 mM DTT. Specific interactions between 56K-pHM and PDK1 proteins were obtained between the concentration range of 2-2150 nM PDK1. Steady state binding was determined at each concentration. Dissociation of PDK1 from the phospho-peptide was monitored over a 1 min period. […]

wild type PDK1 = target: T2, wild type PDK1 (Homo sapiens, UniProt O15530); assay: Surface plasmon resonance (BiaCore) binding of hydrophobic motif peptides, wild type PDK1; set-up: made in house; host or cells: human embryonic kidney 293 cells (pEBG2T vector); settings: BiaCore
T2 sequence (O15530 1-556): T1 sequence (O15530 1-556 Q150A) with A150Q
Experimental: as §1, §2
B. As in A. except that binding was analysed over a range of PDK1 concentrations (2-2150 nM). The response level at the steady state binding is plotted versus the log of the PDK1 concentration. The estimated Kd was obtained by fitting the data to a sigmoid curve using Kaleidagraph software.
Binding was analysed in a BiaCore 3000 system (BiaCore AB, Stevenage, UK). Biotinylated S6K-pHM (Biotin-C12-[…](P)YVAPSV) (SEQ ID NO:104) or the non-phosphorylated form of this peptide S6K-HM was bound to an streptavidin-coated Sensor chip (SA) (12 response units, RU). 30 μl of wild type or the indicated mutant GST-PDK1 were injected at a flow rate of 30 μl/min, in buffer HBS-P (10 mM HEPES pH 7.4, 0.15M NaCl, 0.005% (by vol) polysorbate-20) supplemented with 1 mM DTT. Specific interactions between 56K-pHM and PDK1 proteins were obtained between the concentration range of 2-2150 nM PDK1. Steady state binding was determined at each concentration. Dissociation of PDK1 from the phospho-peptide was monitored over a 1 min period. Regeneration of the sensor chip surface was performed with 1{tilde over (0)} μl injections of 0.05% SDS. […] (RUmax=435). For all PDK1 construct tested, the off rates for S6Kp-HM were high in comparison to those of PIFtide binding with the time taken for 50% dissociation to occur for 56K-pHM is 30s compared to 1000s for PIFtide.

CC(C)C[C@H](NC(=O)[C@H](Cc1ccccc1)NC(=O)[C@@H](NC(=O)[C@H](CCC(N)=O)NC(=O)[C@H](CC(N)=O)NC(=O)[C@H](C)NC(=O)[C@H](CO)NC(=O)[C@H](CCC(=O)O)NC(=O)[C@@H](N)CO)C(C)C)C(=O)NCC(=O)N[C@@H](Cc1ccccc1)C(=O)N[C@H](C(=O)N[C@@H](Cc1ccc(O)cc1)C(=O)N[C@H](C(=O)N[C@@H](C)C(=O)N1CCC[C@H]1C(=O)N[C@@H](CO)C(=O)N[C@H](C(=O)O)C(C)C)C(C)C)[C@@H](C)OP(=O)(O)O [S6K-pHM] (H-SESANQVFLGF[pT]YVAPSV-OH; N-terminus and C-terminus assumed)
binding of PDK1[Q150A] to peptide (PDK1[Q150A]): No detectable binding; also recorded: did not detectably interact
time taken for 50% dissociation of PDK1 from peptide (wild type PDK1; all PDK1 constructs tested): 30 s
lower affinity of wild type PDK1 for peptide in comparison to PIFtide (wild type PDK1; overall): approximately 100 fold
